Source: publication PMC3521580 (Journal of medicinal chemistry, 2011)
Where two headings read alike, the source gives them in different places. Non-standard residues stand in square brackets, D forms with d. Residues, ends and D or L forms follow the SMILES beside them. *: point of attachment. X1 = CC(=O)NCCCC(CCCNC(C)=O)(NC(=O)CNC(=O)Cn1cc(CCC(=O)*)nn1)C(=O)NCCC(N)=O

Experiments:
[1] = target: T1, human MC4R (Homo sapiens, UniProt P32245); test: Time resolved fluorescence competition binding assay against Eu-NDP-α-MSH; conditions: for Relative potency to Ac-MSH(4): Table 2
[2] = target: T1, human MC4R; test: cAMP biological response chemiluminescent immunoassay in Hek293/hMC4R cells; assay type: cell-based; conditions: hMC4R cells, result in words

T1 sequence (P32245 whole entry): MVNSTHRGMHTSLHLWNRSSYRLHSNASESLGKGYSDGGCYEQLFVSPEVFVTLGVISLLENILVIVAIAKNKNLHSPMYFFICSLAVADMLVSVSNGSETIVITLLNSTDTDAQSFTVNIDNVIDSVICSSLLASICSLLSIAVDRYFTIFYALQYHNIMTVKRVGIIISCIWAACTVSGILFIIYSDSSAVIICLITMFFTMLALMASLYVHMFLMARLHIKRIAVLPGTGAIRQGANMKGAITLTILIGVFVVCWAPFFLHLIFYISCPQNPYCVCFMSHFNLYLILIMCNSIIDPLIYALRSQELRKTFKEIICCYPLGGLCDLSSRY

## CC(=O)N[C@@H](CCCCNC(=O)CCc1cn(CC(=O)NCCCC(CCCNC(=O)Cn2cc(CCC(=O)NCCCC[C@H](NC(C)=O)C(=O)N[C@@H](Cc3c[nH]cn3)C(=O)N[C@H](Cc3ccccc3)C(=O)N[C@@H](CCCNC(=N)N)C(=O)N[C@@H](Cc3c[nH]c4ccccc34)C(N)=O)nn2)(NC(=O)CNC(=O)Cn2cc(CCC(=O)NCCCC[C@H](NC(C)=O)C(=O)N[C@@H](Cc3c[nH]cn3)C(=O)N[C@H](Cc3ccccc3)C(=O)N[C@@H](CCCNC(=N)N)C(=O)N[C@@H](Cc3c[nH]c4ccccc34)C(N)=O)nn2)C(=O)NCCC(N)=O)nn1)C(=O)N[C@@H](Cc1c[nH]cn1)C(=O)N[C@H](Cc1ccccc1)C(=O)N[C@@H](CCCNC(=N)N)C(=O)N[C@@H](Cc1c[nH]c2ccccc12)C(N)=O (stereo partly shown) [NB297]
[1]
  IC50: 71 ± 5.3 nM
[1]; IC50, MC4R binding affinity as quoted in the text
  IC50: ~72 nM
[1]; ratio of IC50 values, fold
  Relative potency to Ac-MSH(4): 64

## CC(=O)N[C@@H](CCCCNC(=O)CCc1cn(CC(=O)NCC(=O)N2CCC[C@H]2C(=O)NCC(=O)NCCCC(CCCNC(=O)CNC(=O)[C@@H]2CCCN2C(=O)CNC(=O)Cn2cc(CCC(=O)NCCCC[C@H](NC(C)=O)C(=O)N[C@@H](Cc3c[nH]cn3)C(=O)N[C@H](Cc3ccccc3)C(=O)N[C@@H](CCCNC(=N)N)C(=O)N[C@@H](Cc3c[nH]c4ccccc34)C(N)=O)nn2)(NC(=O)CNC(=O)CNC(=O)[C@@H]2CCCN2C(=O)CNC(=O)Cn2cc(CCC(=O)NCCCC[C@H](NC(C)=O)C(=O)N[C@@H](Cc3c[nH]cn3)C(=O)N[C@H](Cc3ccccc3)C(=O)N[C@@H](CCCNC(=N)N)C(=O)N[C@@H](Cc3c[nH]c4ccccc34)C(N)=O)nn2)C(=O)NCCC(N)=O)nn1)C(=O)N[C@@H](Cc1c[nH]cn1)C(=O)N[C@H](Cc1ccccc1)C(=O)N[C@@H](CCCNC(=N)N)C(=O)N[C@@H](Cc1c[nH]c2ccccc12)C(N)=O (stereo partly shown) [NB298]
[1]
  IC50: 220 ± 59 nM
[1]; ratio of IC50 values, fold
  Relative potency to Ac-MSH(4): 21

## CC(=O)N[C@@H](CCCCNC(=O)CCc1cn(CC(=O)NCC(=O)N2CCC[C@H]2C(=O)NCC(=O)N2CCC[C@H]2C(=O)NCC(=O)NCCCC(CCCNC(=O)CNC(=O)[C@@H]2CCCN2C(=O)CNC(=O)[C@@H]2CCCN2C(=O)CNC(=O)Cn2cc(CCC(=O)NCCCC[C@H](NC(C)=O)C(=O)N[C@@H](Cc3c[nH]cn3)C(=O)N[C@H](Cc3ccccc3)C(=O)N[C@@H](CCCNC(=N)N)C(=O)N[C@@H](Cc3c[nH]c4ccccc34)C(N)=O)nn2)(NC(=O)CNC(=O)CNC(=O)[C@@H]2CCCN2C(=O)CNC(=O)[C@@H]2CCCN2C(=O)CNC(=O)Cn2cc(CCC(=O)NCCCC[C@H](NC(C)=O)C(=O)N[C@@H](Cc3c[nH]cn3)C(=O)N[C@H](Cc3ccccc3)C(=O)N[C@@H](CCCNC(=N)N)C(=O)N[C@@H](Cc3c[nH]c4ccccc34)C(N)=O)nn2)C(=O)NCCC(N)=O)nn1)C(=O)N[C@@H](Cc1c[nH]cn1)C(=O)N[C@H](Cc1ccccc1)C(=O)N[C@@H](CCCNC(=N)N)C(=O)N[C@@H](Cc1c[nH]c2ccccc12)C(N)=O (stereo partly shown) [NB299]
[1]
  IC50: 410 ± 70 nM
[1]; ratio of IC50 values, fold
  Relative potency to Ac-MSH(4): 11

## CC(=O)N[C@@H](CCCCNC(=O)CCc1cn(CC(=O)NCC(=O)N2CCC[C@H]2C(=O)NCC(=O)N2CCC[C@H]2C(=O)NCC(=O)N2CCC[C@H]2C(=O)NCC(=O)NCCCC(CCCNC(=O)CNC(=O)[C@@H]2CCCN2C(=O)CNC(=O)[C@@H]2CCCN2C(=O)CNC(=O)[C@@H]2CCCN2C(=O)CNC(=O)Cn2cc(CCC(=O)NCCCC[C@H](NC(C)=O)C(=O)N[C@@H](Cc3c[nH]cn3)C(=O)N[C@H](Cc3ccccc3)C(=O)N[C@@H](CCCNC(=N)N)C(=O)N[C@@H](Cc3c[nH]c4ccccc34)C(N)=O)nn2)(NC(=O)CNC(=O)CNC(=O)[C@@H]2CCCN2C(=O)CNC(=O)[C@@H]2CCCN2C(=O)CNC(=O)[C@@H]2CCCN2C(=O)CNC(=O)Cn2cc(CCC(=O)NCCCC[C@H](NC(C)=O)C(=O)N[C@@H](Cc3c[nH]cn3)C(=O)N[C@H](Cc3ccccc3)C(=O)N[C@@H](CCCNC(=N)N)C(=O)N[C@@H](Cc3c[nH]c4ccccc34)C(N)=O)nn2)C(=O)NCCC(N)=O)nn1)C(=O)N[C@@H](Cc1c[nH]cn1)C(=O)N[C@H](Cc1ccccc1)C(=O)N[C@@H](CCCNC(=N)N)C(=O)N[C@@H](Cc1c[nH]c2ccccc12)C(N)=O (stereo partly shown) [NB300]
[1]
  IC50: 620 ± 51 nM
[1]; ratio of IC50 values, fold
  Relative potency to Ac-MSH(4): 7

## CC(=O)N[C@@H](CCCCNC(=O)CCc1cn(CC(=O)NCCC(=O)NCCCC(CCCNC(=O)CCNC(=O)Cn2cc(CCC(=O)NCCCC[C@H](NC(C)=O)C(=O)N[C@@H](Cc3c[nH]cn3)C(=O)N[C@H](Cc3ccccc3)C(=O)N[C@@H](CCCNC(=N)N)C(=O)N[C@@H](Cc3c[nH]c4ccccc34)C(N)=O)nn2)(NC(=O)CNC(=O)CCNC(=O)Cn2cc(CCC(=O)NCCCC[C@H](NC(C)=O)C(=O)N[C@@H](Cc3c[nH]cn3)C(=O)N[C@H](Cc3ccccc3)C(=O)N[C@@H](CCCNC(=N)N)C(=O)N[C@@H](Cc3c[nH]c4ccccc34)C(N)=O)nn2)C(=O)NCCC(N)=O)nn1)C(=O)N[C@@H](Cc1c[nH]cn1)C(=O)N[C@H](Cc1ccccc1)C(=O)N[C@@H](CCCNC(=N)N)C(=O)N[C@@H](Cc1c[nH]c2ccccc12)C(N)=O (stereo partly shown) [NB301]
[1]
  IC50: 88 ± 12 nM
[1]; ratio of IC50 values, fold
  Relative potency to Ac-MSH(4): 52

## CC(=O)N[C@@H](CCCCNC(=O)CCc1cn(CC(=O)NCCC(=O)NCCC(=O)NCCCC(CCCNC(=O)CCNC(=O)CCNC(=O)Cn2cc(CCC(=O)NCCCC[C@H](NC(C)=O)C(=O)N[C@@H](Cc3c[nH]cn3)C(=O)N[C@H](Cc3ccccc3)C(=O)N[C@@H](CCCNC(=N)N)C(=O)N[C@@H](Cc3c[nH]c4ccccc34)C(N)=O)nn2)(NC(=O)CNC(=O)CCNC(=O)CCNC(=O)Cn2cc(CCC(=O)NCCCC[C@H](NC(C)=O)C(=O)N[C@@H](Cc3c[nH]cn3)C(=O)N[C@H](Cc3ccccc3)C(=O)N[C@@H](CCCNC(=N)N)C(=O)N[C@@H](Cc3c[nH]c4ccccc34)C(N)=O)nn2)C(=O)NCCC(N)=O)nn1)C(=O)N[C@@H](Cc1c[nH]cn1)C(=O)N[C@H](Cc1ccccc1)C(=O)N[C@@H](CCCNC(=N)N)C(=O)N[C@@H](Cc1c[nH]c2ccccc12)C(N)=O (stereo partly shown) [NB302]
[1]
  IC50: 120 ± 10 nM
[1]; ratio of IC50 values, fold
  Relative potency to Ac-MSH(4): 38

## CC(=O)NCCCC(CCCNC(C)=O)(NC(=O)CNC(=O)Cn1cc(CCC(=O)NCCCC[C@H](NC(C)=O)C(=O)N[C@@H](Cc2c[nH]cn2)C(=O)N[C@H](Cc2ccccc2)C(=O)N[C@@H](CCCNC(=N)N)C(=O)N[C@@H](Cc2c[nH]c3ccccc23)C(N)=O)nn1)C(=O)NCCC(N)=O [NB397] (Ac-K(X1)H[dF]RW-NH2; N-terminus assumed)
[2]
  cAMP production, agonist activity at MC4R: agonists

## CC(=O)NCC(=O)NC(CCCNC(=O)Cn1cc(CCC(=O)NCCCC[C@H](NC(C)=O)C(=O)N[C@@H](Cc2c[nH]cn2)C(=O)N[C@H](Cc2ccccc2)C(=O)N[C@@H](CCCNC(=N)N)C(=O)N[C@@H](Cc2c[nH]c3ccccc23)C(N)=O)nn1)(CCCNC(=O)Cn1cc(CCC(=O)NCCCC[C@H](NC(C)=O)C(=O)N[C@@H](Cc2c[nH]cn2)C(=O)N[C@H](Cc2ccccc2)C(=O)N[C@@H](CCCNC(=N)N)C(=O)N[C@@H](Cc2c[nH]c3ccccc23)C(N)=O)nn1)C(=O)NCCC(N)=O (stereo partly shown) [NB399]
[1]; Table 3, ratio of IC50 values, fold
  Relative potency to NB397: 16
[2]
  cAMP production, agonist activity at MC4R: agonists
